Legend:
Experiment in all cases: Bliss excess, mean over the matrix (fraction); higher = more synergy
A704 (Kidney Carcinoma) = tested on: A704 (Kidney Carcinoma)
In short: (§1)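 After 24 hours at 37°C and 5% CO2 in 1536-well plates, cells in DMEM/F12 or RPMI plus 10% FBS received two-drug dose matrices for 72 hours. Viability came from CellTiter-Glo 2.0 luminescence and was scaled as inhibition, anchored at 0 by vehicle wells and at 1 by blank wells. Combination Emax is taken as the second-highest inhibition in the matrix, and Bliss excess as the observed combination effect less EA + EB − EA·EB, with EA and EB the single-agent effects.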

BT-20 (Breast Carcinoma) = tested on: BT-20 (Breast Carcinoma)
In short: as §1

[1] = tested on: DG-75 (Burkitt's Lymphoma)
In short: as §1

[2] = tested on: EMC-BAC-2 (Non-Small Cell Lung Carcinoma)
In short: as §1

EW-18 (Ewing's Sarcoma) = tested on: EW-18 (Ewing's Sarcoma)
In short: as §1

[3] = tested on: HSC-2 (Oral Cavity Carcinoma)
In short: as §1

[4] = tested on: HuP-T3 (Pancreatic Carcinoma)
In short: as §1

IMR-5 (Neuroblastoma) = tested on: IMR-5 (Neuroblastoma)
In short: as §1

[5] = tested on: KYSE-150 (Esophageal Squamous Cell Carcinoma)
In short: as §1

[6] = tested on: NCI-H2347 (Lung Adenocarcinoma)
In short: as §1

[7] = tested on: NCI-H2405 (Lung Adenocarcinoma)
In short: as §1

[8] = tested on: NCI-H322M (Lung Adenocarcinoma)
In short: as §1

[9] = tested on: NCI-H513 (Other Solid Carcinomas)
In short: as §1

NH-12 (Neuroblastoma) = tested on: NH-12 (Neuroblastoma)
In short: as §1

[10] = tested on: OCUB-M (Breast Carcinoma)
In short: as §1

RPMI-7951 (Melanoma) = tested on: RPMI-7951 (Melanoma)
In short: as §1

[11] = tested on: SCC-9 (Oral Cavity Carcinoma)
In short: as §1

[12] = tested on: SNU-C1 (Colorectal Carcinoma)
In short: as §1

[13] = tested on: TGBC11TKB (Gastric Carcinoma)
In short: as §1

U-87-MG (Glioblastoma) = tested on: U-87-MG (Glioblastoma)
In short: as §1

Row | SMILES | Bliss excess (A704 (Kidney Carcinoma)) | Bliss excess (BT-20 (Breast Carcinoma)) | Bliss excess [1] | Bliss excess [2] | Bliss excess (EW-18 (Ewing's Sarcoma)) | Bliss excess [3] | Bliss excess [4] | Bliss excess (IMR-5 (Neuroblastoma)) | Bliss excess [5] | Bliss excess [6] | Bliss excess [7] | Bliss excess [8] | Bliss excess [9] | Bliss excess (NH-12 (Neuroblastoma)) | Bliss excess [10] | Bliss excess (RPMI-7951 (Melanoma)) | Bliss excess [11] | Bliss excess [12] | Bliss excess [13] | Bliss excess (U-87-MG (Glioblastoma))
1 | CC1(C)CCC(CN2CCN(c3ccc(C(=O)NS(=O)(=O)c4ccc(NCC5CCOCC5)c([N+](=O)[O-])c4)c(Oc4cnc5[nH]ccc5c4)c3)CC2)=C(c2ccc(Cl)cc2)C1 [Venetoclax] + C=CCn1c(=O)c2cnc(Nc3ccc(N4CCN(C)CC4)cc3)nc2n1-c1cccc(C(C)(C)O)n1 [AZD1775] (first compound max 1 µM, partner max 1 µM) | -0.0283 | -0.0076 | -0.0575 | -0.0562 | -0.014 | -0.0096 | -0.112 | 0.0237 | -0.0452 | -0.0762 | -0.0756 | -0.0173 | -0.0608 | 0.0148 | 0.0062 | -0.0559 | -0.0451 | -0.0136 | -0.0171 | -0.0456
2 | CN(CCO)CC[C@H](CSc1ccccc1)Nc1ccc(S(=O)(=O)NC(=O)c2ccc(N3CCC([C@@H](O)c4ccccc4-c4ccc(Cl)cc4)CC3)cc2)cc1S(=O)(=O)C(F)(F)F [AZD4320] + C[C@@H]1COCCN1C2=NC(=NC(=C2)C3(CC3)[S@](=N)(=O)C)C4=C5C=CNC5=NC=C4 [AZD6738] (first compound max 1 µM, 7x7, partner max 10 µM) | -0.0084 | 0.0778 | -0.0217 | -0.0695 | -0.0539 | 0.0594 | -0.0695 | 0.102 | -0.0536 | -0.0256 | -0.0448 | -0.0335 | -0.0586 | -0.0795 | 0.0055 | -0.0137 | -0.0587 | -0.115 | 0.0135 | -0.0248
3 | CC1(C)CCC(CN2CCN(c3ccc(C(=O)NS(=O)(=O)c4ccc(NCC5CCOCC5)c([N+](=O)[O-])c4)c(Oc4cnc5[nH]ccc5c4)c3)CC2)=C(c2ccc(Cl)cc2)C1 [Venetoclax] + Cn1cnc2c(F)c(Nc3ccc(Br)cc3Cl)c(C(=O)NOCCO)cc21 [Selumetinib] (first compound max 1 µM, 7x7, partner max 3 µM) | -0.0299 | -0.0021 | -0.06 | -0.0324 | -0.104 | -0.0511 | -0.0403 | 0.0009 | -0.0102 | -0.012 | -0.0618 | -0.0124 | -0.0415 | 0.0918 | -0.0137 | -0.049 | -0.0242 | -0.053 | 0.0049 | -0.0889
4 | CN(CCO)CC[C@H](CSc1ccccc1)Nc1ccc(S(=O)(=O)NC(=O)c2ccc(N3CCC([C@@H](O)c4ccccc4-c4ccc(Cl)cc4)CC3)cc2)cc1S(=O)(=O)C(F)(F)F [AZD4320] + CCN(CCO)CCCOc1ccc2c(Nc3cc(CC(=O)Nc4cccc(F)c4)[nH]n3)ncnc2c1 [AZD2811] (first compound max 1 µM, 7x7, partner max 1 µM) | -0.0659 | 0.0212 | -0.0224 | -0.0251 | -0.0795 | 0.166 | -0.0384 | -0.0229 | 0.007 | -0.0472 | -0.0333 | -0.0353 | -0.0283 | -0.049 | 0.0283 | 0.0295 | -0.0115 | -0.0263 | 0.0198 | -0.019
5 | C=CCn1c(=O)c2cnc(Nc3ccc(N4CCN(C)CC4)cc3)nc2n1-c1cccc(C(C)(C)O)n1 [AZD1775] + C1CN(CCC1(C(=O)N[C@@H](CCO)C2=CC=C(C=C2)Cl)N)C3=NC=NC4=C3C=CN4 [Capivasertib] (first compound max 3 µM, partner max 3 µM) | -0.0259 | -0.0742 | 0.0215 | 0.0514 | 0.0244 | 0.0724 | -0.0608 | -0.0214 | 0.0064 | -0.0534 | -0.0891 | 0.0152 | -0.0372 | -0.0728 | -0.0436 | -0.0274 | 0.0038 | -0.0869 | -0.0422 | 0.0503
6 | Cn1cnc2c(F)c(Nc3ccc(Br)cc3Cl)c(C(=O)NOCCO)cc21 [Selumetinib] + CCN(CCO)CCCOc1ccc2c(Nc3cc(CC(=O)Nc4cccc(F)c4)[nH]n3)ncnc2c1 [AZD2811] (first compound max 10 µM, 7x7, partner max 1 µM) | -0.058 | 0.0328 | 0.0193 | 0.0094 | -0.0241 | -0.0278 | -0.0526 | -0.0062 | 0.0295 | 0.0258 | -0.0127 | -0.0069 | -0.0583 | -0.0485 | -0.0959 | 0.0191 | 0.0722 | -0.0494 | 0.0127 | -0.0443
7 | CC(=O)Nc1cccc(-n2c(=O)n(C3CC3)c(=O)c3c(Nc4ccc(I)cc4F)n(C)c(=O)c(C)c32)c1 [Trametinib] + Cc1nc(-c2cn3c(n2)-c2ccc(-c4cnn(C(C)(C)C(N)=O)c4)cc2OCC3)n(C(C)C)n1 [Taselisib] (first compound max 1 µM, 7x7, partner max 10 µM) | -0.0243 | 0.118 | 0.0419 | 0.0528 | 0.0163 | 0.137 | 0.118 | 0.0467 | 0.123 | 0.135 | 0.107 | 0.0404 | 0.0563 | 0.011 | -0.0123 | 0.0161 | 0.192 | -0.0022 | 0.329 | 0.0848
8 | Cn1cnc2c(F)c(Nc3ccc(Br)cc3Cl)c(C(=O)NOCCO)cc21 [Selumetinib] + C=CCn1c(=O)c2cnc(Nc3ccc(N4CCN(C)CC4)cc3)nc2n1-c1cccc(C(C)(C)O)n1 [AZD1775] (first compound max 10 µM, partner max 1 µM) | -0.0211 | -0.0224 | -0.0637 | -0.0711 | -0.147 | -0.0366 | 0.0194 | 0.0121 | 0.0705 | -0.0164 | 0.0147 | -0.0097 | -0.0387 | -0.101 | -0.0399 | -0.0482 | 0.0789 | 0.016 | -0.0163 | -0.0685
9 | NC1(C(=O)N[C@@H](CCO)c2ccc(Cl)cc2)CCN(c2ncnc3[nH]ccc23)CC1 [Capivasertib] + COc1nnc2ccc(N3CCC(c4ccc(OCCN5CCN(C)C(=O)[C@H]5C)cc4)CC3)nn12 [AZD5153] (first compound max 10 µM, 7x7, partner max 1 µM) | 0.0204 | 0.0023 | -0.0133 | 0.0396 | 0.0119 | 0.0456 | -0.0395 | 0.0285 | 0.0618 | -0.033 | 0.0138 | -0.0144 | -0.0222 | 0.0177 | 0.0223 | 0.0498 | 0.0627 | -0.0147 | -0.0144 | 0.0526
10 | NC1(C(=O)N[C@@H](CCO)c2ccc(Cl)cc2)CCN(c2ncnc3[nH]ccc23)CC1 [Capivasertib] + C[C@@H]1COCCN1C2=NC(=NC(=C2)C3(CC3)[S@](=N)(=O)C)C4=C5C=CNC5=NC=C4 [AZD6738] (first compound max 10 µM, 7x7, partner max 10 µM) | -0.0571 | -0.0442 | -0.0138 | 0.0152 | -0.0504 | -0.0096 | -0.036 | 0.019 | -0.0545 | -0.0218 | -0.0513 | -0.0797 | -0.0601 | -0.0643 | -0.0241 | -0.0632 | -0.0111 | -0.0534 | -0.09 | 0.0169
11 | NC1(C(=O)N[C@@H](CCO)c2ccc(Cl)cc2)CCN(c2ncnc3[nH]ccc23)CC1 [Capivasertib] + CCN(CCO)CCCOc1ccc2c(Nc3cc(CC(=O)Nc4cccc(F)c4)[nH]n3)ncnc2c1 [AZD2811] (first compound max 10 µM, 7x7, partner max 1 µM) | -0.0375 | -0.0003 | 0.04 | -0.0124 | -0.0358 | 0.0572 | -0.0317 | -0.0144 | -0.011 | -0.0369 | -0.0535 | 0.0203 | -0.0479 | -0.0439 | -0.0217 | -0.0886 | -0.0281 | -0.0407 | -0.0987 | 0.0175
12 | Cc1c2c(nn1C)CSCc1cc(n(C)n1)CSc1cc(c3ccccc3c1)OCCCc1c(C(=O)O)n(C)c3c-2c(Cl)ccc13 [AZD5991] + Cn1cnc2c(F)c(Nc3ccc(Br)cc3Cl)c(C(=O)NOCCO)cc21 [Selumetinib] (first compound max 1 µM, 7x7, partner max 3 µM) | -0.106 | 0.153 | -0.0023 | 0.0081 | 0.002 | -0.0024 | 0.032 | -0.0154 | 0.0402 | -0.0006 | 0.0595 | 0.0308 | -0.0255 | 0.0026 | 0.0322 | -0.0072 | 0.0245 | 0.0034 | 0.0592 | -0.0073
13 | CC1(C)CCC(CN2CCN(c3ccc(C(=O)NS(=O)(=O)c4ccc(NCC5CCOCC5)c([N+](=O)[O-])c4)c(Oc4cnc5[nH]ccc5c4)c3)CC2)=C(c2ccc(Cl)cc2)C1 [Venetoclax] + C[C@@H](Nc1cc(F)cc(F)c1)c1cc(C(=O)N(C)C)cc2c(=O)cc(N3CCOCC3)oc12 [AZD8186] (first compound max 1 µM, 7x7, partner max 3 µM) | -0.0162 | -0.0229 | 0.0255 | -0.0393 | 0.0781 | -0.0482 | -0.0275 | 0.0793 | -0.0281 | -0.0045 | -0.0396 | -0.0526 | -0.0586 | 0.124 | -0.0082 | -0.0344 | -0.0222 | -0.0749 | -0.0067 | -0.117
14 | Cc1c2c(nn1C)CSCc1cc(n(C)n1)CSc1cc(c3ccccc3c1)OCCCc1c(C(=O)O)n(C)c3c-2c(Cl)ccc13 [AZD5991] + C[C@@H](Nc1cc(F)cc(F)c1)c1cc(C(=O)N(C)C)cc2c(=O)cc(N3CCOCC3)oc12 [AZD8186] (first compound max 1 µM, 7x7, partner max 3 µM) | -0.0291 | 0.0382 | 0.0008 | -0.0336 | 0.0122 | 0.0042 | -0.0622 | -0.0006 | -0.0127 | 0.0251 | -0.0114 | 0.0225 | 0.0221 | 0.0311 | -0.0067 | 0.0878 | -0.0058 | -0.0148 | 0.0005 | -0.097
